What was measured:
[1] = biological target: GCN2 kinase (Homo sapiens, UniProt Q9P2K8); experiment: GCN2 enzyme inhibition assay (Transcreener ADP2 fluorescence polarization); assay type: biochemical; settings: 280 μM ATP
How it was run: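 Human GCN2 (4 nM) preincubated 10 min with compound (0–8 μM) and 200 μM (RS)7 peptide in Tris-HCl pH 7.5, NaCl, MgCl2, DTT. Reaction started with 280 μM ATP, run 1 h at 25 °C. ADP detected by Transcreener fluorescence polarization. IC50 and Ki(app) fitted by tight-binding algorithm.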

[2] = biological target: intracellular GCN2 (phosphorylation of the GCN2 substrate eIF2α) (Homo sapiens, UniProt Q9P2K8); experiment: GCN2 cellular inhibition assay (AlphaScreen SureFire P-eIF2α Ser51, borrelidin-treated U2OS cells); assay type: cell-based; settings: biomarker assay, phosphorylated eIF2α Ser51 in borrelidin-treated U2OS cells
How it was run: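 U2OS, overnight attach; cpd 4-fold serial dil. from 40 μM final; borrelidin 10 μM, 1 h 37 °C/5% CO2; lyse; AlphaScreen P-eIF2α Ser51 (acceptor 2 h, donor overnight, RT, dark); % inhib. vs borrelidin-only.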

[3] = Enzyme activity for compounds of Formula IV, Ki(app), 25° C.
[4] = compounds of Formula II, 4 nM GCN2 kinase

Sequence of intracellular GCN2 (phosphorylation of the GCN2 substrate eIF2α) (Q9P2K8 whole entry): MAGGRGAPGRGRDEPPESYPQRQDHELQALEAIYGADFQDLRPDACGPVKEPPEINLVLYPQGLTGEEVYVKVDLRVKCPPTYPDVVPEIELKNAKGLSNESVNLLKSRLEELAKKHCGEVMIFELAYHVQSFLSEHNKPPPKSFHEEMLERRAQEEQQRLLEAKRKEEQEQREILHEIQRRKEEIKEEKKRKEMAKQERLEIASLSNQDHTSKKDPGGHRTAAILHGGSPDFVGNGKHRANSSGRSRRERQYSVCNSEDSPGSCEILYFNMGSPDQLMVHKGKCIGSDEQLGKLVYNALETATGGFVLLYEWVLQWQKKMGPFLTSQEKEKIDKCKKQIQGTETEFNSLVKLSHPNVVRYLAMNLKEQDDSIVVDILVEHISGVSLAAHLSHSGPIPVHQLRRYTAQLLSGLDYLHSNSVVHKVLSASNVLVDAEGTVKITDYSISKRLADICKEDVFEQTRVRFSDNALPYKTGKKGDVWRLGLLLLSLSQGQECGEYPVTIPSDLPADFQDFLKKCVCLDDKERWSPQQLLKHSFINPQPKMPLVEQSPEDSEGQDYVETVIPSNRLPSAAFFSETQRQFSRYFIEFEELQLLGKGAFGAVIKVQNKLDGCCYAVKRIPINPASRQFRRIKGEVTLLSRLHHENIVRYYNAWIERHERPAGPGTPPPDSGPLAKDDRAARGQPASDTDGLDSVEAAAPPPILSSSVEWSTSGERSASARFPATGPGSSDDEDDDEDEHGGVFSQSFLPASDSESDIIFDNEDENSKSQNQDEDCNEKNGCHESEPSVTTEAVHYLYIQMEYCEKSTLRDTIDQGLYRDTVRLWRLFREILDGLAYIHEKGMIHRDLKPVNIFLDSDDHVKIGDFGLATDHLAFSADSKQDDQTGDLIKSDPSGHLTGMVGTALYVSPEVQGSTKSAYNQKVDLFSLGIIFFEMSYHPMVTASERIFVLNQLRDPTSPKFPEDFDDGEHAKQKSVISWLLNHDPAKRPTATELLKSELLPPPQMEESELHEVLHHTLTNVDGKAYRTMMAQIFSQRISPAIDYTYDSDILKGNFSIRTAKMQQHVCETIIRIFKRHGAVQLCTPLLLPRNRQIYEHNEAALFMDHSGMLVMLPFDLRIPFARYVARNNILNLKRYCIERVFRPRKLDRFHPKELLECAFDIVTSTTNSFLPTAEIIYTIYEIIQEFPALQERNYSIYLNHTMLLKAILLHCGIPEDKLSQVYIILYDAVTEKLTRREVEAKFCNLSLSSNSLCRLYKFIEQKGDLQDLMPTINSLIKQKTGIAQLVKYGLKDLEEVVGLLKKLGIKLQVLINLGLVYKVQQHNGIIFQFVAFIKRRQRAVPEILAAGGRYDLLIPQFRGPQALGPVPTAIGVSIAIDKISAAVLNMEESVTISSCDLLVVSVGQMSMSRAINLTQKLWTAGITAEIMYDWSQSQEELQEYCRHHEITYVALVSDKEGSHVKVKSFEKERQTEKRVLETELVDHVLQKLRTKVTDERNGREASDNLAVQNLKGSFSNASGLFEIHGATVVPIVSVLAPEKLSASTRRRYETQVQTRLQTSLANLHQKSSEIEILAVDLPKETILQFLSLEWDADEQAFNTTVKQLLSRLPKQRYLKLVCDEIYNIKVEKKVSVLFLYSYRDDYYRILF
Sequence of GCN2 kinase (Q9P2K8 whole entry): as above

| Compound | Ki [1, 3] [µM] | IC50 ([2]; compounds of Formula IV) [µM] | Ki [1, 4] [µM] | IC50 ([2]; compounds of Formula II) [µM] |
| --- | --- | --- | --- | --- |
| CS(=O)(=O)NCc1cccc(-c2ccnc(-c3cnc4cnc(C(F)F)cn34)n2)c1 [IV-146, N-(3-(2-(6-(Difluoromethyl)imidazo[1,2-a]pyrazin-3-yl)pyrimidin-4-yl)benzyl)methanesulfonamide] | 0.1 to 1 | > 5 | – | – |
| CS(=O)(=O)CCC1CCCN(c2cc(-c3cnc4ccc(C(F)F)nn34)ccn2)C1 (stereo not shown) [II-128, 6-(Difluoromethyl)-3-(2-(3-(2-(methylsulfonyl)ethyl)piperidin-1-yl)pyridin-4-yl)imidazo[1,2-b]pyridazine] | – | – | 0.01 to 1 | 0.5 to 5 |
| COCC(=O)NCCC1CCCN(c2cc(-c3cnc4ccc(C(F)F)nn34)ncn2)C1 (stereo not shown) [II-209, N-(2-(1-(6-(6-(Difluoromethyl)imidazo[1,2-b]pyridazin-3-yl)pyrimidin-4-yl)piperidin-3-yl)ethyl)-2-methoxyacetamide] | – | – | 0.01 to 1 | > 5 |
| OC1CCN(C2CCN(c3cc(-c4cnc5ccc(C(F)F)nn45)ncn3)C2)C1 (stereo not shown) [II-352, 1′-(6-(6-(Difluoromethyl)imidazo[1,2-b]pyridazin-3-yl)pyrimidin-4-yl)-[1,3′-bipyrrolidin]-3-ol] | – | – | 0.01 to 1 | > 5 |
| CC1C(CNS(C)(=O)=O)CN(c2cc(-c3cnc4ccc(C(F)F)nn34)ncn2)CC1(F)F (stereo not shown) [II-381, N-((1-(6-(6-(Difluoromethyl)imidazo[1,2-b]pyridazin-3-yl)pyrimidin-4-yl)-5,5-difluoro-4-methylpiperidin-3-yl)methyl)methanesulfonamide] | – | – | < 0.01 | < 0.5 |
| CC1CC(N=S(C)(C)=O)CN(c2cc(-c3cnc4ccc(C(F)F)nn34)ccn2)C1 (stereo not shown) [II-716, ((1-(4-(6-(Difluoromethyl)imidazo[1,2-b]pyridazin-3-yl)pyridin-2-yl)-5-methylpiperidin-3-yl)imino)dimethyl-λ^6-sulfanone] | – | – | < 0.01 | < 0.5 |
| FC(F)c1ccc2ncc(-c3ccnc(N4CCOC(c5cn[nH]c5)C4)c3)n2n1 (stereo not shown) [II-147, 4-(4-(6-(Difluoromethyl)imidazo[1,2-b]pyridazin-3-yl)pyridin-2-yl)-2-(1H-pyrazol-4-yl)morpholine] | – | – | 0.01 to 1 | < 0.5 |
| FC(F)(F)c1cn2c(-c3nccc(N4CCCC(c5cncs5)C4)n3)cnc2cn1 (stereo not shown) [IV-691, 5-(1-(2-(6-(Trifluoromethyl)imidazo[1,2-a]pyrazin-3-yl)pyrimidin-4-yl)piperidin-3-yl)thiazole] | 0.01 to 0.1 | 0.5 to 5 | – | – |
| CC1CN(c2ccnc(-c3cnc4cnc(C(F)(F)F)cn34)n2)CC(c2cn[nH]c2)O1 (single isomer, unassigned) [IV-16, 2-Methyl-6-(1H-pyrazol-4-yl)-4-(2-(6-(trifluoromethyl)imidazo[1,2-a]pyrazin-3-yl)pyrimidin-4-yl)morpholine] | 0.01 to 0.1 | 0.5 to 5 | – | – |
| FC(F)c1cn2c(-c3nccc(N4CCc5ccccc5C4)n3)cnc2cn1 [IV-115, 2-(2-(6-(Difluoromethyl)imidazo[1,2-a]pyrazin-3-yl)pyrimidin-4-yl)-1,2,3,4-tetrahydroisoquinoline] | 0.1 to 1 | > 5 | – | – |
| CS(C)(=O)=NC1CCCN(c2cc(-c3cnc4ccc(C(F)F)nn34)ncn2)C1C(F)F (stereo not shown) [II-700, [2-(Difluoromethyl)-1-[6-[6-(difluoromethyl)imidazo[1,2-b]pyridazin-3-yl]pyrimidin-4-yl]-3-piperidyl]imino-dimethyl-λ^6-sulfanone] | – | – | < 0.01 | < 0.5 |
| C[C@H]1[C@@H](c2cn[nH]c2)OCCN1c1ccnc(-c2cnc3cnc(C(F)(F)F)cn23)n1 (racemic) [IV-215, Cis-3-Methyl-2-(1H-pyrazol-4-yl)-4-(2-(6-(trifluoromethyl)imidazo[1,2-a]pyrazin-3-yl)pyrimidin-4-yl)morpholine] | 0.01 to 0.1 | < 0.5 | – | – |
| NC(=O)c1cn2c(-c3cccc(N4CCN5C(=O)CCC[C@H]5C4)n3)cnc2cn1 [IV-228, (S)-3-(6-(6-Oxooctahydro-2H-pyrido[1,2-a]pyrazin-2-yl)pyridin-2-yl)imidazo[1,2-a]pyrazine-6-carboxamide] | 0.01 to 0.1 | 0.5 to 5 | – | – |
| Fc1n[nH]cc1C1CCN(c2ccnc(-c3cnc4cnc(C(F)(F)F)cn34)n2)C1 (single isomer, unassigned) [IV-562, 3-(4-(3-(3-Fluoro-1H-pyrazol-4-yl)pyrrolidin-1-yl)pyrimidin-2-yl)-6-(trifluoromethyl)imidazo[1,2-a]pyrazine] | < 0.01 | < 0.5 | – | – |
| NS(=O)(=O)CCC1CCCCN1c1cc(-c2cnc3ccc(C(F)F)nn23)ncn1 (stereo not shown) [II-283, 2-(1-(6-(6-(Difluoromethyl)imidazo[1,2-b]pyridazin-3-yl)pyrimidin-4-yl)piperidin-2-yl)ethane-1-sulfonamide] | – | – | 0.01 to 1 | > 5 |
| CS(=O)(=O)NCC1COCCN(c2cc(-c3cnc4ccc(C(F)F)nn34)ccn2)C1 (stereo not shown) [II-99, N-((4-(4-(6-(Difluoromethyl)imidazo[1,2-b]pyridazin-3-yl)pyridin-2-yl)-1,4-oxazepan-6-yl)methyl)methanesulfonamide] | – | – | < 0.01 | 0.5 to 5 |
| CNS(=O)(=O)C1CCCN(c2ccnc(-c3cnc4cnc(C(F)F)cn34)n2)C1 (stereo not shown) [IV-164, 1-(2-(6-(Difluoromethyl)imidazo[1,2-a]pyrazin-3-yl)pyrimidin-4-yl)-N-methylpiperidine-3-sulfonamide] | 0.1 to 1 | > 5 | – | – |
| CC1CN(c2cc(-c3cnc4ccc(C(F)F)nn34)ncn2)C(C)C(CNS(C)(=O)=O)=C1F (stereo not shown) [II-491, N-((1-(6-(6-(Difluoromethyl)imidazo[1,2-b]pyridazin-3-yl)pyrimidin-4-yl)-4-fluoro-2,5-dimethyl-1,2,5,6-tetrahydropyridin-3-yl)methyl)methanesulfonamide] | – | – | < 0.01 | < 0.5 |
| CS(=O)(=O)C1CCCN(c2cc(-c3cnc4ccc(C(F)(F)F)nn34)ccn2)C1 (stereo not shown) [II-228, 3-(2-(3-(Methylsulfonyl)piperidin-1-yl)pyridin-4-yl)-6-(trifluoromethyl)imidazo[1,2-b]pyridazine] | – | – | 0.01 to 1 | > 5 |
| NC(=O)[C@H]1CCCN(c2ccnc(-c3cnc4cnc(C(F)(F)F)cn34)n2)C1 [IV-60, (S)-1-(2-(6-(Trifluoromethyl)imidazo[1,2-a]pyrazin-3-yl)pyrimidin-4-yl)piperidine-3-carboxamide] | < 0.01 | 0.5 to 5 | – | – |
| CS(=O)(=O)NCC1CCCN(c2cc(-c3cnc4ccc(C(F)F)nn34)c(F)cn2)C1 (stereo not shown) [II-729, N-((1-(4-(6-(Difluoromethyl)imidazo[1,2-b]pyridazin-3-yl)-5-fluoropyridin-2-yl)piperidin-3-yl)methyl)methanesulfonamide] | – | – | < 0.01 | 0.5 to 5 |
| CC1(C)COCCN1c1cc(-c2cnc3ccc(C(F)F)nn23)ncn1 [II-402, 4-(6-(6-(Difluoromethyl)imidazo[1,2-b]pyridazin-3-yl)pyrimidin-4-yl)-3,3-dimethylmorpholine] | – | – | 0.01 to 1 | > 5 |
| CC1CN(c2cc(-c3cnc4ccc(C(F)F)nn34)ncn2)CC(CNS(C)(=O)=O)C1(F)F (stereo not shown) [II-35, N-((1-(6-(6-(Difluoromethyl)imidazo[1,2-b]pyridazin-3-yl)pyrimidin-4-yl)-4,4-difluoro-5-methylpiperidin-3-yl)methyl)methanesulfonamide] | – | – | 0.01 to 1 | 0.5 to 5 |

Source: US10988477B2 (Merck Patent GmbH, priority 2018, dated 2021)
